Measured values taken from US20230312550A1, “N-(2-(4-CYANOTHIAZOLIDIN-3-YL)-2-OXOETHYL)-QUINOLINE-4-CARBOXAMIDES” (AstraZeneca AB, priority 2020, published 2023).
Converted amounts (≈) assume the structure as drawn.

Tests used:
[1] = target: human Fibroblast activation protein alpha (hFAP) (Homo sapiens (Human), UniProt Q12884); assay: hFAP inhibition assay (tight binders); format: biochemical; conditions: Ala-Pro-AMC 20 μM, n = 1 or geometric mean n = 2-6; note: hFAP 2.4 pM
Protocol: The plates were read on a PHERAstar® reader with excitation 340 nm and emission 460 nm. Data were analyzed in Genedata Screener®. IC50 values were determined by plotting % inhibition versus log compound concentration and using a one site dose response model.

hFAP (M39-A757) = hFAP (M39-A757) (Homo sapiens (Human), UniProt Q12884); assay: hFAP binding assay (surface plasmon resonance); conditions: SPR, 20° C.; for hFAP Binding assay k(off) / hFAP Binding assay k(on): single cycle kinetics; for Kd: n = 1 or geometric mean n = 2-4
hFAP (M39-A757), sequence (Q12884 39-757): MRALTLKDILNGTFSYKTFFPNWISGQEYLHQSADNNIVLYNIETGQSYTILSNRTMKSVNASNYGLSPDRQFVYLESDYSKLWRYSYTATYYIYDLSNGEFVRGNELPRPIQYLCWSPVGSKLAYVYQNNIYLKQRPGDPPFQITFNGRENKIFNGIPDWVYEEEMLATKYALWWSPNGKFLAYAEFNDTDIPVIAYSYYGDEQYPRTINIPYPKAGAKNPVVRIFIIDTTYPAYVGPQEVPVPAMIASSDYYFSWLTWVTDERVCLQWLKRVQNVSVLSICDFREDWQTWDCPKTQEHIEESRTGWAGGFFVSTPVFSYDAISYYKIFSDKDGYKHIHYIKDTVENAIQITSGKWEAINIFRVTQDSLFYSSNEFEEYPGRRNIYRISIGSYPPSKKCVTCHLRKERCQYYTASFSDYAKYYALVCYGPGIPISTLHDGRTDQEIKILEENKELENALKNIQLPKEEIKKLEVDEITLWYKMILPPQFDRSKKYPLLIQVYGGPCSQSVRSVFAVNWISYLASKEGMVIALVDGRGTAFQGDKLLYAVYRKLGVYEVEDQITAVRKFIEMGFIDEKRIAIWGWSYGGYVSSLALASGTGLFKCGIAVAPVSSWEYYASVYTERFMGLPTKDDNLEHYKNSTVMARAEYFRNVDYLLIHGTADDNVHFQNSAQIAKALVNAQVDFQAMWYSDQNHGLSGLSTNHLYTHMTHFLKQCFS

[2] = target: Prolyl endopeptidase, Prolyl Oligopeptidase (hPREP) (Homo sapiens (Human), UniProt P48147); assay: hPrep inhibition assay; format: biochemical; conditions: hPREP 0.6 nM, Z-Gly-Pro-amino-methylcoumarin 50 μM; read-out: PREP IC50
Prolyl endopeptidase, Prolyl Oligopeptidase (hPREP), sequence (P48147 whole entry): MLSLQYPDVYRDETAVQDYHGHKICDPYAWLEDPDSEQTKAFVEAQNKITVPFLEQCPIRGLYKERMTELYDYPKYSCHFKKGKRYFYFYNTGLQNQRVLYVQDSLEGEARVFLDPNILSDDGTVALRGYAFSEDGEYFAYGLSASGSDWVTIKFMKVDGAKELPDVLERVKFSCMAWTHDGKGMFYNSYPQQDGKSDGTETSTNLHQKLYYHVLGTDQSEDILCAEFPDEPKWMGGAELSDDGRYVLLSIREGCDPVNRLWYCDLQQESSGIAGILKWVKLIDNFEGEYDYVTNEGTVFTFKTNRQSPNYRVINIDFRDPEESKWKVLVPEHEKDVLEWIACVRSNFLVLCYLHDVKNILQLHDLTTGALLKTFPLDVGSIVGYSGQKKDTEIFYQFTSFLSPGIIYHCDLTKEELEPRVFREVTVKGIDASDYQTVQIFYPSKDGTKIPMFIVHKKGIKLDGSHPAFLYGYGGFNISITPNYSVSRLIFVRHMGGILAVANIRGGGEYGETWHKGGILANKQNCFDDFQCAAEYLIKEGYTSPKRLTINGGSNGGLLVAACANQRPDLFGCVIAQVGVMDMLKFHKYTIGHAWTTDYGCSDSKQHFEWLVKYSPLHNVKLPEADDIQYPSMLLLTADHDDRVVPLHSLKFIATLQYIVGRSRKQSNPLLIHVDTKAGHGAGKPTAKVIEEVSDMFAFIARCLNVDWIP
In short: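 Fluorogenic read-out (340 nm excitation, 460 nm emission) after 20 min at rt, using 50 μM final Z-Gly-Pro-aminomethylcoumarin and 0.6 nM final enzyme, following 15 min compound preincubation. Buffer pH 7.5 with glutathione and Triton X-100. IC50 via one-site model on % inhibition vs log concentration.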

Kinetic solubility = conditions: kinetic from dmso stock
Protocol: Kinetic solubility was measured as described in Comput Aided Mol Des 2015, 29, 795.

[3] = Metabolic stability in rat hepatocytes (rHep); conditions: n = 1 or geometric mean of n = 2-3
[4] = Metabolic stability in human liver microsomes (HLM); conditions: human
Protocol: Metabolic stability in HLM was measured as described in J Comput Aided Mol Des 2015, 29, 795.

[5] = Solubility, kinetic solubility, n = 1 or average of n = 2-3
[6] = HLM CLint, n = 1 or average of n = 2-3

human Fibroblast activation protein alpha (hFAP), sequence (Q12884 38-760): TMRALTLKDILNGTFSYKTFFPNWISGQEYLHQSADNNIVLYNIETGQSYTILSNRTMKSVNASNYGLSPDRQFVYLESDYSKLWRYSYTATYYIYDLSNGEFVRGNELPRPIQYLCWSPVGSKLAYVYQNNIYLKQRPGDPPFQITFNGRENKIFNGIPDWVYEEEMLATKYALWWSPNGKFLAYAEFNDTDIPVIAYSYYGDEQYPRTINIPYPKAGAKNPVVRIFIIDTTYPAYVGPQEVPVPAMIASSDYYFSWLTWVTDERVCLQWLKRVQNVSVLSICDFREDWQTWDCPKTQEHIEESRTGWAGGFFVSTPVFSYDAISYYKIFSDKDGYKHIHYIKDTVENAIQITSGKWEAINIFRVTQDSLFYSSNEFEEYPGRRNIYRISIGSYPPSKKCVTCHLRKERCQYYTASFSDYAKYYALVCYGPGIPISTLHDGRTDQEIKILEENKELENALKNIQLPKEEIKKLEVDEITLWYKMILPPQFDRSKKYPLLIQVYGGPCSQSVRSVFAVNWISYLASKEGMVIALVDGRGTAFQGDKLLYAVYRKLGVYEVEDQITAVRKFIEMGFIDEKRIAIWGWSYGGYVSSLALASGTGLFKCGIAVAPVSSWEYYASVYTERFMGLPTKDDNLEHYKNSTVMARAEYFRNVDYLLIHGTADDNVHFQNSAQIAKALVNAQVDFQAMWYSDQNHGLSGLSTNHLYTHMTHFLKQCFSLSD

SMILES | IC50 [1] | hFAP Binding assay k(off) (hFAP (M39-A757)) | hFAP Binding assay k(on) (hFAP (M39-A757)) | Kd (hFAP (M39-A757)) | IC50 [2] | solubility (Kinetic solubility; [5]) | rHep CLint [3] | microsomal CLint [4, 6] | solubility (Kinetic solubility) | microsomal CLint [4]
CC1(C)CN(c2ccc3nccc(C(=O)NCC(=O)N4CSC[C@H]4C#N)c3c2)C(=O)O1 [Example 13, (R)—N-(2-(4-Cyanothiazolidin-3-yl)-2-oxoethyl)-6-(5,5-dimethyl-2-oxooxazolidin-3-yl)quinoline-4-carboxamide] | 0.041 nM | 0.000076 s⁻¹ | 9200000 M⁻¹ s⁻¹ | 0.014 nM | 380 nM | 27 µM (≈ 11.9 µg/mL) | 5.4 μL/min/1E6 | 12 µL/min/mg |  | 
Cc1cc(C(F)(F)F)nn1-c1ccc2nccc(C(=O)NCC(=O)N3CSC[C@H]3C#N)c2c1 [Example 116, (R)—N-(2-(4-Cyanothiazolidin-3-yl)-2-oxoethyl)-6-(5-methyl-3-(trifluoromethyl)-1H-pyrazol-1-yl)quinoline-4-carboxamide] | 0.16 nM | 0.0012 s⁻¹ | 7900000 M⁻¹ s⁻¹ | 0.15 nM | 230 nM | 490 µM (≈ 232 µg/mL) | 15 μL/min/1E6 | 98 µL/min/mg |  | 
N#C[C@@H]1CSCN1C(=O)CNC(=O)c1ccnc2ccc(N3CC4(CCCC4)C3)cc12 [Example 139, (R)—N-(2-(4-Cyanothiazolidin-3-yl)-2-oxoethyl)-6-(2-azaspiro[3.4]octan-2-yl)quinoline-4-carboxamide] | 0.32 nM |  |  | 0.015 nM | 1000 nM |  | 13 μL/min/1E6 |  | 50 µM (≈ 21.8 µg/mL) | 72 µL/min/mg
N#C[C@@H]1CSCN1C(=O)CNC(=O)c1ccnc2ccc(N3CCC[C@H]3C3CC3)cc12 (single isomer, unassigned) [Example 200, N-(2-((R)-4-Cyanothiazolidin-3-yl)-2-oxoethyl)-6-((R*)-2-cyclopropyl-pyrrolidin-1-yl)quinoline-4-carboxamide] | 0.24 nM | 0.00023 s⁻¹ | 2500000 M⁻¹ s⁻¹ | 0.09 nM | 130 nM | 81 µM (≈ 35.3 µg/mL) | >300 μL/min/1E6 | > 300 µL/min/mg |  | 
N#C[C@@H]1CSCN1C(=O)CNC(=O)c1ccnc2ccc(N3CC(CCF)C3)cc12 [Example 146, (R)—N-(2-(4-Cyanothiazolidin-3-yl)-2-oxoethyl)-6-(3-(2-fluoroethyl)-azetidin-1-yl)quinoline-4-carboxamide] | 0.15 nM | 0.00017 s⁻¹ | 1400000 M⁻¹ s⁻¹ | 0.12 nM | 450 nM | 24 µM (≈ 10.3 µg/mL) | 4.3 μL/min/1E6 | 11 µL/min/mg |  | 
N#C[C@@H]1CSCN1C(=O)CNC(=O)c1ccnc2ccc(-n3ccc(C(F)(F)F)n3)cc12 [Example 118, (R)—N-(2-(4-Cyanothiazolidin-3-yl)-2-oxoethyl)-6-(3-(trifluoromethyl)-1H-pyrazol-1-yl)quinoline-4-carboxamide] | 0.1 nM |  |  | 0.17 nM | 360 nM | 20 µM (≈ 9.21 µg/mL) | 21 μL/min/1E6 | 41 µL/min/mg |  | 
CC(C)OC1CCN(c2ccc3nccc(C(=O)NCC(=O)N4CSC[C@H]4C#N)c3c2)CC1 [Example 43, (R)—N-(2-(4-Cyanothiazolidin-3-yl)-2-oxoethyl)-6-(4-isopropoxypiperidin-1-yl)quinoline-4-carboxamide] | 0.045 nM | 0.000019 s⁻¹ | 3200000 M⁻¹ s⁻¹ | 0.0061 nM | 1000 nM | 52 µM (≈ 24.3 µg/mL) | 9.1 μL/min/1E6 | 36 µL/min/mg |  | 
